Results published in PubChem BioAssay AID2060907 (Molecular Pharmacology Branch, DTP, NCI, 2025).

System: 388556-164-R-J1-PDC complex spheroid viability
Assay: Anticancer human tumor 388556-164-R-J1-PDC patient-derived colon adenocarcinoma cell line growth inhibition [RAS]
Conditions: for IC50: curve of first compound; for viability, T/C: stronger effect = lower value
Method in brief: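 Tumour cells grown as complex spheroids with HUVEC endothelial cells and mesenchymal stem cells, treated with RAS pathway inhibitor combinations. Each agent spans half-log steps from near clinical Cmax, or 10 microM where Cmax is unknown.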
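Note: spheroids exposed to compound for 7 days before readout.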
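Throughout, for viability, T/C: 100% = DMSO vehicle control luminescence.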

With `CC(=O)OC12COC1CC(O)C1(C)C(=O)C(O)C3=C(C)C(OC(=O)C(O)C(NC(=O)OC(C)(C)C)c4ccccc4)CC(O)(C(OC(=O)c4ccccc4)C21)C3(C)C` (centres undefined) + CCn1c(-c2cccnc2C(C)OC)c2c3cc(ccc31)N1CCOC(CC(NC(=O)C(C(C)C)N(C)C(=O)C3(F)CCN(C(=O)C#CC(C)(C)N(C)C)CC3)C(=O)N3CCCC(N3)C(=O)OCC(C)(C)C2)C1 the IC50 (second compound 0.000949 µM) was greater than 10000 nM, the IC50 (second compound 0.003 µM) was greater than 10000 nM and the IC50 (second compound 0.00949 µM) was greater than 10000 nM. It also gave an IC50 (second compound 0.03 µM) greater than 10000 nM, an IC50 (second compound 0.0949 µM) greater than 10000 nM and an IC50 (second compound 0.3 µM) greater than 10000 nM. It also gave a viability, T/C (second compound 0.000949 µM, first compound 0.0316 µM) of 86%, a viability, T/C (second compound 0.000949 µM, first compound 0.1 µM) of 83.4% and a viability, T/C (second compound 0.000949 µM, first compound 0.316 µM) of 70.5%. It also gave a viability, T/C (second compound 0.000949 µM, first compound 1 µM) of 73.7%, a viability, T/C (second compound 0.000949 µM, first compound 3.16 µM) of 80.7% and a viability, T/C (second compound 0.000949 µM, first compound 10 µM) of 74.7%. For the same molecule, the viability, T/C (second compound 0.003 µM, first compound 0.0316 µM) was 92.2%, the viability, T/C (second compound 0.003 µM, first compound 0.1 µM) was 78.8% and the viability, T/C (second compound 0.003 µM, first compound 0.316 µM) was 79%. For the same molecule, the viability, T/C (second compound 0.003 µM, first compound 1 µM) was 76%, the viability, T/C (second compound 0.003 µM, first compound 3.16 µM) was 75.1% and the viability, T/C (second compound 0.003 µM, first compound 10 µM) was 74.4%. It also gave a viability, T/C (second compound 0.00949 µM, first compound 0.0316 µM) of 86%, a viability, T/C (second compound 0.00949 µM, first compound 0.1 µM) of 83.4% and a viability, T/C (second compound 0.00949 µM, first compound 0.316 µM) of 76.6%. The viability, T/C (second compound 0.00949 µM, first compound 1 µM) was 75%, the viability, T/C (second compound 0.00949 µM, first compound 3.16 µM) was 79.4% and the viability, T/C (second compound 0.00949 µM, first compound 10 µM) was 71%. The viability, T/C (second compound 0.03 µM, first compound 0.0316 µM) was 95.5%, the viability, T/C (second compound 0.03 µM, first compound 0.1 µM) was 81.7% and the viability, T/C (second compound 0.03 µM, first compound 0.316 µM) was 70.7%. It also gave a viability, T/C (second compound 0.03 µM, first compound 1 µM) of 71.7%, a viability, T/C (second compound 0.03 µM, first compound 3.16 µM) of 79.1% and a viability, T/C (second compound 0.03 µM, first compound 10 µM) of 74.2%. For the same molecule, the viability, T/C (second compound 0.0949 µM, first compound 0.0316 µM) was 80.7%, the viability, T/C (second compound 0.0949 µM, first compound 0.1 µM) was 79.2% and the viability, T/C (second compound 0.0949 µM, first compound 0.316 µM) was 81.8%. It also gave a viability, T/C (second compound 0.0949 µM, first compound 1 µM) of 76.3%, a viability, T/C (second compound 0.0949 µM, first compound 3.16 µM) of 78% and a viability, T/C (second compound 0.0949 µM, first compound 10 µM) of 69.6%. For the same molecule, the viability, T/C (second compound 0.3 µM, first compound 0.0316 µM) was 79.7%, the viability, T/C (second compound 0.3 µM, first compound 0.1 µM) was 70.3% and the viability, T/C (second compound 0.3 µM, first compound 0.316 µM) was 71.3%. The viability, T/C (second compound 0.3 µM, first compound 1 µM) was 73.8%, the viability, T/C (second compound 0.3 µM, first compound 3.16 µM) was 71.4% and the viability, T/C (second compound 0.3 µM, first compound 10 µM) was 69%.

Work on `CCc1c2c(nc3ccc(O)cc13)-c1cc3c(c(=O)n1C2)COC(=O)[C@]3(O)CC` + CCn1c(-c2cccnc2C(C)OC)c2c3cc(ccc31)N1CCOC(CC(NC(=O)C(C(C)C)N(C)C(=O)C3(F)CCN(C(=O)C#CC(C)(C)N(C)C)CC3)C(=O)N3CCCC(N3)C(=O)OCC(C)(C)C2)C1 yielded an IC50 (second compound 0.000949 µM) of 68 nM, an IC50 (second compound 0.003 µM) of 74.5 nM and an IC50 (second compound 0.00949 µM) of 72 nM. For the same molecule, the IC50 (second compound 0.03 µM) was 86.1 nM, the IC50 (second compound 0.0949 µM) was 69.5 nM and the IC50 (second compound 0.3 µM) was 46.7 nM. The viability, T/C (second compound 0.000949 µM, first compound 0.000949 µM) was 107%, the viability, T/C (second compound 0.000949 µM, first compound 0.003 µM) was 98.7% and the viability, T/C (second compound 0.000949 µM, first compound 0.00949 µM) was 87.1%. For the same molecule, the viability, T/C (second compound 0.000949 µM, first compound 0.03 µM) was 62.1%, the viability, T/C (second compound 0.000949 µM, first compound 0.0949 µM) was 45.8% and the viability, T/C (second compound 0.000949 µM, first compound 0.3 µM) was 32.1%. It also gave a viability, T/C (second compound 0.003 µM, first compound 0.000949 µM) of 111%, a viability, T/C (second compound 0.003 µM, first compound 0.003 µM) of 88.7% and a viability, T/C (second compound 0.003 µM, first compound 0.00949 µM) of 83.6%. The viability, T/C (second compound 0.003 µM, first compound 0.03 µM) was 61.4%, the viability, T/C (second compound 0.003 µM, first compound 0.0949 µM) was 47.3% and the viability, T/C (second compound 0.003 µM, first compound 0.3 µM) was 29.1%. For the same molecule, the viability, T/C (second compound 0.00949 µM, first compound 0.000949 µM) was 104%, the viability, T/C (second compound 0.00949 µM, first compound 0.003 µM) was 96.5% and the viability, T/C (second compound 0.00949 µM, first compound 0.00949 µM) was 83.8%. It also gave a viability, T/C (second compound 0.00949 µM, first compound 0.03 µM) of 63.6%, a viability, T/C (second compound 0.00949 µM, first compound 0.0949 µM) of 46.2% and a viability, T/C (second compound 0.00949 µM, first compound 0.3 µM) of 31.1%. It also gave a viability, T/C (second compound 0.03 µM, first compound 0.000949 µM) of 106%, a viability, T/C (second compound 0.03 µM, first compound 0.003 µM) of 96.8% and a viability, T/C (second compound 0.03 µM, first compound 0.00949 µM) of 78.2%. For the same molecule, the viability, T/C (second compound 0.03 µM, first compound 0.03 µM) was 65.5%, the viability, T/C (second compound 0.03 µM, first compound 0.0949 µM) was 52.7% and the viability, T/C (second compound 0.03 µM, first compound 0.3 µM) was 27%. For the same molecule, the viability, T/C (second compound 0.0949 µM, first compound 0.000949 µM) was 93.3%, the viability, T/C (second compound 0.0949 µM, first compound 0.003 µM) was 90% and the viability, T/C (second compound 0.0949 µM, first compound 0.00949 µM) was 80.4%. It also gave a viability, T/C (second compound 0.0949 µM, first compound 0.03 µM) of 63.7%, a viability, T/C (second compound 0.0949 µM, first compound 0.0949 µM) of 45.3% and a viability, T/C (second compound 0.0949 µM, first compound 0.3 µM) of 25.5%. The viability, T/C (second compound 0.3 µM, first compound 0.000949 µM) was 92.4%, the viability, T/C (second compound 0.3 µM, first compound 0.003 µM) was 89.7% and the viability, T/C (second compound 0.3 µM, first compound 0.00949 µM) was 72.2%. The viability, T/C (second compound 0.3 µM, first compound 0.03 µM) was 57.3%, the viability, T/C (second compound 0.3 µM, first compound 0.0949 µM) was 39.1% and the viability, T/C (second compound 0.3 µM, first compound 0.3 µM) was 21.4%.
